Publication PMC11596957, “Biological Characteristics of a Novel Bibenzyl Synthase (DoBS1) Gene from Dendrobium officinale Catalyzing Dihydroresveratrol Synthesis” (Molecules, 2024)

Molecular target: T1, DoBS1 (bibenzyl synthase) (Dendrobium officinale, UniProt Z9NEY1S5B3)
T1 construct: type III PKS family known as homodimer
T1 sequence (Z9NEY1S5B3 1-390): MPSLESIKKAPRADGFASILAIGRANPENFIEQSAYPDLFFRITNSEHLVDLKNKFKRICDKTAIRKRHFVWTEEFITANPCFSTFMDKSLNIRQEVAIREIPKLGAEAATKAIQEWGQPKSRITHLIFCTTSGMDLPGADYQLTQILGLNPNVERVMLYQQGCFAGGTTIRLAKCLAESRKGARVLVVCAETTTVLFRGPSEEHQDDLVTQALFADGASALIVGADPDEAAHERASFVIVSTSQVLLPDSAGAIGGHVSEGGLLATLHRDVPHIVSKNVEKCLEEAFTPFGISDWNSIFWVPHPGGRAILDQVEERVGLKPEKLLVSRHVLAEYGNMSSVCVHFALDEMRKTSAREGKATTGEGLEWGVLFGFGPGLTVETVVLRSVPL
Test: HPLC of dihydroresveratrol formation, Michaelis-Menten fit
Format: biochemical
Conditions: co-substrate malonyl-CoA (2.5 mM in the described assay), 37 °C, 30 min; text gives the Km 'for DHR' production, Figure 7 legend names p-coumaroyl-CoA as varied substrate; unit printed as mmol
Source text: HPLC of dihydroresveratrol formation, Michaelis-Menten fit on DoBS1 (bibenzyl synthase) | Kinetic analysis of DoBS1 toward p-coumaroyl-CoA

Q: How did the Km turn out when `CC(C)(COP(=O)(O)OP(=O)(O)OC[C@H]1O[C@@H](n2cnc3c(N)ncnc32)[C@H](O)[C@@H]1OP(=O)(O)O)[C@@H](O)C(=O)NCCC(=O)NCCSC(=O)/C=C/c1ccc(O)cc1` [p-coumaroyl-CoA] was run?
A: 0.30 ± 0.08 mmol
